# In ChEMBL document CHEMBL5223129, “Antioxidant, Anti-inflammatory, and Immunomodulatory Roles of Nonvitamin Antioxidants in Anti-SARS-CoV-2 Therapy” (J Med Chem, 2022):
# System: SARS-CoV-2
# Experiment: Antiviral activity against pseudovirus SARS-CoV-2 spike protein infected human HEK293T cells overexpressing ACE2 assessed as inhibition of viral infection incubated for 96 hrs by GFP fluorescence based method
# Format: functional, organism-based
# Conditions: Severe acute respiratory syndrome coronavirus 2, HEK-293T
smiles,measurement,value
CC1=C[C@H](O)CC(C)(C)[C@H]1/C=C/C(C)=C/C=C/C(C)=C/C=C/C=C(C)/C=C/C=C(\CO)C(=O)CC1=C(C)C[C@@H](O)CC1(C)C,IC50,87.4 µM
